PMC10154249, “Unique progerin C-terminal peptide ameliorates Hutchinson–Gilford progeria syndrome phenotype by rescuing BUBR1” (Nature Aging, 2023)
Values joined by “and” are separate entries in the source; they are usually repeats but may differ in a detail not shown here. Equal entries are not always repeated.

Assays:
[1] = tested on: BUBR1 / CyclinA2 in HGADFN003 cells; assay: Western blot of BUBR1 and CyclinA2 in HGADFN003 cells; type: cell-based, human
Procedure: Western blot was performed as previously described. Cells were lysed in 1× Laemmli sample buffer after washing twice in cold PBS without calcium and magnesium. Protein concentrations were determined using the bicinchoninic acid (BCA) protein assay. Protein lysates were subjected to SDS–PAGE, transferred to 0.45-μm pore size hydrophobic PVDF transfer membrane (Merck Millipore), detected with the appropriate primary antibodies coupled with horseradish peroxidase-conjugated corresponding secondary antibodies, and visualized using enhanced chemiluminescence ECL reagent (GE Healthcare). The Tanon 5500 high-definition low-illumination CCD system (Tanon FLI Capture v.1.02) was used to capture chemiluminescent signals.

[2] = tested on: HGADFN003 cells; assay: γH2AX-53BP1 foci in HGADFN003 cells; type: cell-based, human
Procedure: (§1) Immunofluorescence was performed as described previously. Cells were plated on cover slips in 12-well plates, left overnight before the treatment. Cells were fixed in 1% formaldehyde in culture medium for 10 min at 37 °C and permeabilized with 0.2% Triton X-100 in PBS for 10 min at room temperature. Cells were washed twice in PBS and blocked for 1 h with 5% BSA in PBS and then incubated with primary antibodies at 4 °C overnight, washed three times in PBS and incubated with secondary antibodies for 1 h at room temperature. Cell nuclei were counterstained with a 500 nM concentration of 4,6-diamidino-2-phenylindole (DAPI) (Sigma). Images were acquired by a fluorescence microscope (OLYMPUS FV-1000, Carl Zeiss LSM880 or Leica DMi8) and analyzed with software NIS-Elements AR v.5.0.1 (Nikon), FLUOVIEW v.4.2b (OLYMPUS), ZEN v.2.3 SP1 (Carl Zeiss) and Leica Application Suite X v.3.6.0.24 (Leica). Cells were quantified by investigators who were blinded to the identity of the analyzed cell.

[3] = tested on: IMR90 cells; assay: Ki67 immunofluorescence of IMR90 cells; type: cell-based, human
Procedure: as §1

[4] = tested on: Lmna^G609G/G609G mice; assay: Bodyweight of Lmna^G609G/G609G mice; type: in vivo, mouse; settings: 20 mg kg^–1 i.p. every other day from 14 days of age
Source text: All animal experiments were approved by the Ethics Committee of School of Life Sciences, Northeast Normal University, China (AP20191011) and carried out in accordance with the relevant guidelines: National Standards of the People’s Republic of China (GB/T 35892–2018), Laboratory Animal—Guideline for Ethical Review of Animal Welfare. We generated a mouse model (ICR background), carrying the Lmna^G609G using the BE4-Gam system. The protocols for the BE4-Gam system and microinjection of pronuclear-stage embryos have been described in detail previously[37],[38],[59]. Briefly, a mixture of BE4-Gam mRNA (200 ng μl^–1) and sgRNA-Lmna (30 ng μl^–1) was coinjected into the cytoplasm of pronuclear-stage embryos of the mouse. The injected embryos were transferred to embryo culture medium for 30–60 min, followed by transferring the injected embryos into the recipient mother. The embryos continued to develop and the founder mice (referred to as F0) were born: wild-type mice (Lmna^+/+), heterozygous mice (Lmna^G609G/+) and homozygous mice (Lmna^G609G/G609G). […]
For UPCP injection, 14-day-old Lmna^G609G/G609G mice were injected intraperitoneally with either PBS or UPCP (20 mg kg^–1, every other day) and wild-type mice were injected with PBS. […] Bodyweight and lifespan were monitored after UPCP treatment. The survival rate was analyzed by the Kaplan–Meier method. […]

[5] = tested on: muscle of Lmna^G609G/G609G mice; assay: Masson staining of muscle (fibrosis); type: in vivo, mouse; settings: 13 weeks
Procedure: For UPCP injection, 14-day-old Lmna^G609G/G609G mice were injected intraperitoneally with either PBS or UPCP (20 mg kg^–1, every other day) and wild-type mice were injected with PBS. […] Bodyweight and lifespan were monitored after UPCP treatment. The survival rate was analyzed by the Kaplan–Meier method. We only included mice that were of sufficient bodyweight at the start of the experiment, typically at least 80% of the average littermate weight of the same sex and genotype. All animals meeting criteria for inclusion were then divided randomly into three groups according to genotype (Lmna^+/+, Lmna^G609G/G609G-Mock and Lmna^G609G/G609G-UPCP).
For histological analyses, mice of the indicated genotypes were perfused with PBS, then with 4% paraformaldehyde (PFA). Whole organs were incubated in 4% PFA at 4 °C for 16 h. All samples were paraffin embedded and sectioning by Servicebio. Subsequently, the tissues were deparaffinized and rehydrated before hematoxylin-eosin (HE) or Masson staining or immunohistochemistry (IHC). HE staining was performed using an HE Kit (Absin, catalog no. abs9217), and Masson staining was performed using Masson’s Trichrome Stain Kit (Absin, catalog no. abs9347) according to the manufacturer’s instructions. The thickness of the layers or the areas of fibrosis in the tissues were calculated using ImageJ software by a blinded investigator. For IHC, the sections were completed by the Servicebio. The images were acquired by a microscope (Leica DMi8) and analyzed with Leica Application Suite X v.3.6.0.24 (Leica). For BubR1, cytoplasmic staining in cells was scored on the intensity of staining and the proportion of positive cells by a blinded investigator. The intensity of the staining was graded as 0 (negative, no color), 1 (low positive, light yellow), 2 (positive, brown yellow) or 3 (high positive, brown), and the number of positive cells was graded as 0 (<5%), 1 (5–25%), 2 (25–50%), 3 (51–75%) or 4 (>75%). The final score was defined as staining number score multiplied by staining color score. For lamin B1, p21 or IL-6, the proportion of positive cells was used to quantify the expression of protein in tissues by a blinded investigator.

H-YGRKKRRQRRRYNLRSRTVLCGTCGQPADKASASGSGAQSPQNCSIM-OH (cysteines drawn unpaired) [UPCP, unique progerin C-terminal peptide]
BUBR1 expression (FTI-277/UPCP comparison, words) ([1]; HGADFN003): increasing expression of BUBR1 | CyclinA2 expression (FTI-277/UPCP comparison, words) ([1]; HGADFN003): increasing expression of BUBR1, CyclinA2 | BUBR1 abundance ([1]; HGADFN003 cells, UPCP 0–10 μM, Western blot): upregulated BUBR1 | γH2AX and 53BP1 positive cells (/Mock) ([2]; HGADFN003, relative to Mock = 100, replicate 1): 45% | γH2AX and 53BP1 positive cells (/Mock) ([2]; HGADFN003, relative to Mock = 100, replicate 2): 55% | γH2AX and 53BP1 positive cells (/Mock) ([2]; HGADFN003, relative to Mock = 100, replicate 3): 50% | γH2AX-53BP1 foci ([2]; HGPS fibroblasts): lower level of γH2AX-53BP1 foci | Ki67 positive cells ([3]; IMR90, replicate 1): 73% | Ki67 positive cells ([3]; IMR90, replicate 2): 84% | Ki67 positive cells ([3]; IMR90, replicate 3): 87% | bodyweight, female ([4]; female): slow down the bodyweight loss | bodyweight, male ([4]; male): increase the bodyweight | fibrosis, muscle ([5]; 20 mg kg^–1 i.p. every other day): decrease of fibrosis in the muscle | fibrosis area/ total area, muscle ([5]; 20 mg kg^–1 i.p., replicate 1): 0.003895 and 0.3895% | fibrosis area, muscle ([5]; 20 mg kg^–1 i.p., replicate 1, total area 340.18): 1.325 | fibrosis area, muscle ([5]; 20 mg kg^–1 i.p., replicate 2, total area 353.151): 1.196 | fibrosis area, muscle ([5]; 20 mg kg^–1 i.p., replicate 3, total area 365.081): 2.133
